From ChEMBL document CHEMBL6182870, “Synthesis and biological activity of 1H-pyrrolo[3,2-g]isoquinolines as Haspin kinase inhibitors” (Bioorg Med Chem, 2025)

What was measured:
[1] = biological target: T1, Serine/threonine-protein kinase haspin (Homo sapiens) (UniProt Q8TF76); assay: Inhibition of haspin in human U2OS cells assessed as at 1 uM incubated for 16 hrs by DAPI staining based immunofluorescence analysis relative to control; type: cell-based
T1 sequence (whole entry): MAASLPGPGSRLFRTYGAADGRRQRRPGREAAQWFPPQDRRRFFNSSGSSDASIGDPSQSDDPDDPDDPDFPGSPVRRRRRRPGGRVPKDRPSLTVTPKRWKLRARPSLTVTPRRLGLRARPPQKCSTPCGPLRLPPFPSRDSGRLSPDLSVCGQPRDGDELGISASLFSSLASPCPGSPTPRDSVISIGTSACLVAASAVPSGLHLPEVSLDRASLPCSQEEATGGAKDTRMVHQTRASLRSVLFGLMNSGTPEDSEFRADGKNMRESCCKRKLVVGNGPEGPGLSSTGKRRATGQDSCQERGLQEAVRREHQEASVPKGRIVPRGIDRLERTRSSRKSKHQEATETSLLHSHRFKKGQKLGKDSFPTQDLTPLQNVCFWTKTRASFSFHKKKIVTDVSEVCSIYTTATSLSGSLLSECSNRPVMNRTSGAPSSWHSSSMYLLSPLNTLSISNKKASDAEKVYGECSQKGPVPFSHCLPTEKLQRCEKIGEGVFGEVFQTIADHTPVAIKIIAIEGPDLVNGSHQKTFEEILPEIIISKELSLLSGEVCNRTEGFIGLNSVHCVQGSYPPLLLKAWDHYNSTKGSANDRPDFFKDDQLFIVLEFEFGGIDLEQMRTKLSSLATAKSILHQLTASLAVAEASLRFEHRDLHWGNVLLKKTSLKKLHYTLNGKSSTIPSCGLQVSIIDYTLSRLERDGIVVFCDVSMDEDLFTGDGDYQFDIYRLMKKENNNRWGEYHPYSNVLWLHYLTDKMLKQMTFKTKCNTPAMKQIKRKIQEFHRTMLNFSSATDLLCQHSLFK

[2] = biological target: T1, Serine/threonine-protein kinase haspin (Homo sapiens); assay: Inhibition of recombinant human haspin kinase domain (470 to 798 residues) extracted from bacteria using histone H3 (1 to 21) peptide as substrate assessed as residual activity at 10 uM incubated for 30 mins in presence of ATP by ADP-Glo kinase assay relative to control
[3] = biological target: T1, Serine/threonine-protein kinase haspin (Homo sapiens); assay: Inhibition of recombinant human haspin kinase domain (470 to 798 residues) extracted from bacteria using histone H3 (1 to 21) peptide as substrate assessed as residual activity at 1 uM incubated for 30 mins in presence of ATP by ADP-Glo kinase assay relative to control
[4] = biological target: T2, Serine/threonine-protein kinase haspin (Homo sapiens, UniProt Q8TF76); assay: Inhibition of recombinant human haspin kinase domain (470 to 798 residues) extracted from bacteria using histone H3 (1 to 21) peptide as substrate incubated for 30 mins in presence of ATP by ADP-Glo kinase assay
T2 sequence (Q8TF76 whole entry): T1 sequence (whole entry)

[5] = biological target: Dual specificity tyrosine-phosphorylation-regulated kinase 1A (Rattus norvegicus) (UniProt Q63470); assay: Inhibition of recombinant rat DYRK1A kinase domain (1 to 499 residues) extracted from bacteria using KKISGRLSPIMTEQ as substrate assessed as enzyme residual activity at 10 uM incubated for 30 mins in presence of ATP by ADP-Glo kinase assay relative to control
[6] = biological target: Dual specificity protein kinase CLK1 (Mus musculus) (UniProt P22518); assay: Inhibition of recombinant mouse CLK1 extracted from bacteria using GRSRSRSRSRSR as substrate assessed as enzyme residual activity at 10 uM incubated for 30 mins in presence of ATP by ADP-Glo kinase assay relative to control
[7] = biological target: Dual specificity protein kinase CLK1 (Mus musculus) (UniProt P22518); assay: Inhibition of recombinant mouse CLK1 extracted from bacteria using GRSRSRSRSRSR as substrate assessed as enzyme residual activity at 1 uM incubated for 30 mins in presence of ATP by ADP-Glo kinase assay relative to control
[8] = biological target: Dual specificity protein kinase CLK1 (Mus musculus, UniProt P22518); assay: Inhibition of recombinant mouse CLK1 extracted from bacteria using GRSRSRSRSRSR as substrate incubated for 30 mins in presence of ATP by ADP-Glo kinase assay
[9] = biological target: Dual specificity tyrosine-phosphorylation-regulated kinase 1A (Rattus norvegicus) (UniProt Q63470); assay: Inhibition of recombinant rat DYRK1A kinase domain (1 to 499 residues) extracted from bacteria using KKISGRLSPIMTEQ as substrate assessed as enzyme residual activity at 1 uM incubated for 30 mins in presence of ATP by ADP-Glo kinase assay relative to control
[10] = biological target: Dual specificity tyrosine-phosphorylation-regulated kinase 1A (Rattus norvegicus, UniProt Q63470); assay: Inhibition of recombinant rat DYRK1A kinase domain (1 to 499 residues) extracted from bacteria using KKISGRLSPIMTEQ as substrate incubated for 30 mins in presence of ATP by ADP-Glo kinase assay
[11] = Inhibition of recombinant human CDK9/Cyclin T extracted from baculovirus infected Sf9 cells using YSPTSPSYSPTSPSYSPTSPSKKKK as substrate assessed as enzyme residual activity at 10 uM incubated for 30 mins in presence of ATP by ADP-Glo kinase assay relative to control
[12] = Inhibition of recombinant human CDK9/Cyclin T extracted from baculovirus infected Sf9 cells using YSPTSPSYSPTSPSYSPTSPSKKKK as substrate assessed as enzyme residual activity at 1 uM incubated for 30 mins in presence of ATP by ADP-Glo kinase assay relative to control
[13] = biological target: Glycogen synthase kinase-3 beta (Homo sapiens) (UniProt P49841); assay: Inhibition of recombinant human GSK3beta extracted from baculovirus infected Sf9 cells using GS-1 (YRRAAVPPSPSLSRHSSPHQSpEDEEE) peptide as substrate assessed as enzyme residual activity at 10 uM incubated for 30 mins in presence of ATP by ADP-Glo kinase assay relative to control
[14] = biological target: Glycogen synthase kinase-3 beta (Homo sapiens) (UniProt P49841); assay: Inhibition of recombinant human GSK3beta extracted from baculovirus infected Sf9 cells using GS-1 (YRRAAVPPSPSLSRHSSPHQSpEDEEE) peptide as substrate assessed as enzyme residual activity at 1 uM incubated for 30 mins in presence of ATP by ADP-Glo kinase assay relative to control
[15] = biological target: Casein kinase I isoform epsilon (Homo sapiens) (UniProt P49674); assay: Inhibition of recombinant human CK1epsilon extracted from baculovirus infected Sf9 cells using RRKHAAIGSpAYSITA peptide as substrate assessed as enzyme residual activity at 10 uM incubated for 30 mins in presence of ATP by ADP-Glo kinase assay relative to control
[16] = biological target: Casein kinase I isoform epsilon (Homo sapiens) (UniProt P49674); assay: Inhibition of recombinant human CK1epsilon extracted from baculovirus infected Sf9 cells using RRKHAAIGSpAYSITA peptide as substrate assessed as enzyme residual activity at 1 uM incubated for 30 mins in presence of ATP by ADP-Glo kinase assay relative to control
[17] = biological target: T3, Cyclin-dependent kinase 5/CDK5 activator 1 (Homo sapiens) (UniProt Q00535+Q15078); assay: Inhibition of recombinant human CDK5/p25 extracted from bacteria using histone H1 as substrate assessed as enzyme residual activity at 10 uM incubated for 30 mins in presence of ATP by ADP-Glo kinase assay relative to control; type: protein-complex assay
[18] = biological target: T3, Cyclin-dependent kinase 5/CDK5 activator 1 (Homo sapiens); assay: Inhibition of recombinant human CDK5/p25 extracted from bacteria using histone H1 as substrate assessed as enzyme residual activity at 1 uM incubated for 30 mins in presence of ATP by ADP-Glo kinase assay relative to control; type: protein-complex assay
[19] = biological target: T4, Serine/threonine-protein kinase pim-1 (Homo sapiens, UniProt P11309); assay: Inhibition of recombinant human PIM-1 extracted from bacteria using histone H1 as substrate assessed as enzyme residual activity at 10 uM incubated for 30 mins in presence of ATP by ADP-Glo kinase assay relative to control
Target sequence in this assay (P11309 whole entry, looked up): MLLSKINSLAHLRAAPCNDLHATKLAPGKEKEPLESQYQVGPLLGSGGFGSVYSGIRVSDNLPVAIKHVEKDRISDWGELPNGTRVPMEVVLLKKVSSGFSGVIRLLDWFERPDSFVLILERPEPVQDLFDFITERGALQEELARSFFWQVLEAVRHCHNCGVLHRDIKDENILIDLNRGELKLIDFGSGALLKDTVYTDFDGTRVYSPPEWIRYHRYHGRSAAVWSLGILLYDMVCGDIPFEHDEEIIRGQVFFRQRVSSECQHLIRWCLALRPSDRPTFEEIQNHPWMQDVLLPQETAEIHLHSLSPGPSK

[20] = biological target: T4, Serine/threonine-protein kinase pim-1; assay: Inhibition of recombinant human PIM-1 extracted from bacteria using histone H1 as substrate assessed as enzyme residual activity at 1 uM incubated for 30 mins in presence of ATP by ADP-Glo kinase assay relative to control
Target sequence in this assay (P11309 whole entry, looked up): as above

[21] = Selectivity index, ratio of IC50 for inhibition of recombinant rat DYRK1A kinase domain (1to 499 residues) extracted from bacteria to IC50 for inhibition of human haspin kinase domain (470 to 798 residues) extracted from bacteria using histone H3 (1 to 21) peptide as substrate
SH-SY5Y = assay: Antiproliferative activity against human SH-SY5Y cells assessed as inhibition of cell viability incubated for 48 hrs by MTS assay; type: functional, cell-based
U2OS = assay: Antiproliferative activity against human U2OS cells assessed as inhibition of cell viability incubated for 48 hrs by MTS assay; type: functional, cell-based
[22] = biological target: T4, Serine/threonine-protein kinase pim-1; assay: Inhibition of recombinant human PIM-1 extracted from bacteria using histone H1 as substrate incubated for 30 mins in presence of ATP by ADP-Glo kinase assay
Target sequence in this assay (P11309 whole entry): as the sequence (P11309 whole entry, looked up) above

[23] = Cytotoxicity against human hTERT-RPE1 cells assessed as effect on cell viability incubated for 48 hrs by MTS assay; type: toxicity, cell-based, TERT-RPE1
HBL-100 = assay: Antiproliferative activity against human HBL-100 cells assessed as inhibition of cell viability incubated for 48 hrs by MTS assay; type: functional, cell-based; details: HBL-100, 48 h
HCT-116 = assay: Antiproliferative activity against human HCT-116 cells assessed as inhibition of cell viability incubated for 48 hrs by MTS assay; type: functional, cell-based; details: HCT-116, 48 h
[24] = biological target: T1, Serine/threonine-protein kinase haspin (Homo sapiens); assay: Inhibition of haspin in human U2OS cells assessed as at 5 uM incubated for 16 hrs by DAPI staining based immunofluorescence analysis relative to control; type: cell-based

Sequence of Glycogen synthase kinase-3 beta (Homo sapiens) (P49841 whole entry, looked up, canonical isoform): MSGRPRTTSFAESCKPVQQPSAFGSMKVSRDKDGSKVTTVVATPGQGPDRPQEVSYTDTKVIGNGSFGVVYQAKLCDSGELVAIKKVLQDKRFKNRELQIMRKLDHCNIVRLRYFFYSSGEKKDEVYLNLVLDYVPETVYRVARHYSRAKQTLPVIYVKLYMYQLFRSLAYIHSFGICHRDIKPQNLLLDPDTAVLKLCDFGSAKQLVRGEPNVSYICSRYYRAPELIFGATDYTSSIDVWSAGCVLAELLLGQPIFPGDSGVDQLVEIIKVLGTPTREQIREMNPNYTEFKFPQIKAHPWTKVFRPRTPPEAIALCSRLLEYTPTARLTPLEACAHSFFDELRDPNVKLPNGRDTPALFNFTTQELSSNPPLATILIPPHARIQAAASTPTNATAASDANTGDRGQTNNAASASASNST
Sequence of Casein kinase I isoform epsilon (Homo sapiens) (P49674 whole entry, looked up, canonical isoform): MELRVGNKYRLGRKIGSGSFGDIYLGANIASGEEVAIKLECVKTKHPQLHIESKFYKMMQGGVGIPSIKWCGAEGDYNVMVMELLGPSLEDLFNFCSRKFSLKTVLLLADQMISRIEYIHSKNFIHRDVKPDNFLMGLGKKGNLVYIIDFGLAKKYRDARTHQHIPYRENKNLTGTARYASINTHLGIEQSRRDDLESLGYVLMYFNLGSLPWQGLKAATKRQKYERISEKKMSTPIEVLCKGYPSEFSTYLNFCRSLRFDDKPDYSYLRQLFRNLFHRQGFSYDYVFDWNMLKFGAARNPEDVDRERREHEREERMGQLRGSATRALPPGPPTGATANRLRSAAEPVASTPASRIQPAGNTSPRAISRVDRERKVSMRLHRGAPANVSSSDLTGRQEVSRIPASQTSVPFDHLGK
Sequence of Dual specificity protein kinase CLK1 (P22518 whole entry, the tested form may be a part): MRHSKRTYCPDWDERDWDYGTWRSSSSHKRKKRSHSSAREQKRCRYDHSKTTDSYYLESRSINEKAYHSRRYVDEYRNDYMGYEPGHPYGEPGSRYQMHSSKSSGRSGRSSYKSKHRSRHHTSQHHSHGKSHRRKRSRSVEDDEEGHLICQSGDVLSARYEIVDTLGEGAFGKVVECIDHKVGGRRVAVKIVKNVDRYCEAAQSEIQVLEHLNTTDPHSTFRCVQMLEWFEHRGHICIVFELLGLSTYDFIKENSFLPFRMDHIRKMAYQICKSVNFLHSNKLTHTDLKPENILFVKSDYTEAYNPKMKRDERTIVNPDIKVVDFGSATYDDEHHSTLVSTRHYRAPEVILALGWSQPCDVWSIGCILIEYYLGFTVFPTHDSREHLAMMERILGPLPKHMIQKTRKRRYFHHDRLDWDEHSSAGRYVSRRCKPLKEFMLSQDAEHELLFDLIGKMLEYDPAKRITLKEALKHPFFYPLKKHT
Sequence of Dual specificity protein kinase CLK1 (Mus musculus) (P22518 whole entry, looked up): as the sequence (P22518 whole entry, the tested form may be a part) above
T3 sequence (Q00535 whole entry): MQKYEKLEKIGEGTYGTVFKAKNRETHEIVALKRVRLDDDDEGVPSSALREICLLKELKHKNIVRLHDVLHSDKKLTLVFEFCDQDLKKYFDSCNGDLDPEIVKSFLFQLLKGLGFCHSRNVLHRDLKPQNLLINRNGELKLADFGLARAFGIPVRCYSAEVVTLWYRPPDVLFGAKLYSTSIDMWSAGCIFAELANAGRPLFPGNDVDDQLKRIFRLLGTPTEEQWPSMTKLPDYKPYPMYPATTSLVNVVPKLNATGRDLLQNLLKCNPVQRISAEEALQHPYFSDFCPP
T3 sequence (Q15078 99-307 partner limits assumed): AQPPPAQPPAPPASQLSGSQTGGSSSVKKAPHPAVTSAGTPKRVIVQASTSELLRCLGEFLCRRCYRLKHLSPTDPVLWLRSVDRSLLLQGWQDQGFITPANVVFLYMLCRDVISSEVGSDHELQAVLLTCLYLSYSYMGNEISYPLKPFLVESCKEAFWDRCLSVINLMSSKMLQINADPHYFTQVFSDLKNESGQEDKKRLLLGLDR

Row | Compound | Activity [2] [%] | Activity [3] [%] | IC50 [4] [nM] | Activity [5] [%] | Activity [6] [%] | Activity [7] [%] | IC50 [8] [nM] | Activity [9] [%] | IC50 [10] [nM] | Activity [11] [%] | Activity [12] [%] | Activity [13] [%] | Activity [14] [%] | Activity [15] [%] | Activity [16] [%] | Activity [17] [%] | Activity [18] [%] | Activity [19] [%] | Activity [20] [%] | EC50 (SH-SY5Y) [nM] | further results
1 | CCCNc1ccc2ncc(-c3ccc4[nH]ncc4c3)n2n1 | – | – | – | – | – | – | – | – | – | – | – | – | – | – | – | – | – | – | – | – | inhibition [1]: 100%
2 | c1ccc(-c2c[nH]c3cc4cnccc4cc23)nc1 | 3 | 8 | 84.4 | 11 | 10 | 27 | 387 | 27 | 159 | 49 | 90 | 72 | 84 | 90 | 97 | 35 | 72 | 19 | 63 | – | Ratio IC50 [21]: 1.9
3 | Cn1cc(-c2ccncc2)c2cc3ccncc3cc21 | 5 | 7 | 23.6 | 9 | 13 | 35 | 546 | 23 | 339 | 59 | 97 | 92 | 74 | 42 | 72 | 44 | 63 | 18 | 37 | 6400 | EC50 (U2OS): 3200 nM; IC50 [22]: 1270 nM; EC50 at 48 h [23]: 2300 nM; EC50 (HBL-100): 6600 nM; EC50 (HCT-116): 2100 nM; inhibition [24]: 37%
4 | Cn1cc(-c2cccnc2)c2cc3ccncc3cc21 | 3 | 9 | 31.7 | 12 | 7 | 18 | 177 | 33 | 498 | 39 | 81 | 34 | 69 | 65 | 94 | 75 | 79 | 54 | 45 | 17700 | EC50 (U2OS): 11500 nM; IC50 [22]: 876 nM; EC50 at 48 h [23]: 17800 nM; EC50 (HBL-100): 26900 nM; EC50 (HCT-116): 15000 nM; inhibition [24]: No effect
